Results published in patent US9540373B2, “Substituted spirocycles” (Boehringer Ingelheim International GmbH, priority 2014, dated 2017).
Where two headings read alike, the source gives them in different places.

What was measured:
[1] = tested on: neutrophil elastase activity in U937 cells; assay: Determination of neutrophil elastase activity in U937 cytosolic lysate preparation after incubation with test compound; format: cell-based; conditions: Homo sapiens, U-937; U937 cells incubated 48 hours with compound, NE activity in lysate; read-out: Reduction of NE-activity in U937 cells IC50
Description: Determination of Neutrophil Elastase Activity in U937 Cytosolic Lysate Preparation after Incubation with Test Compound Materials:
24 well Nunclon cell culture plates (No. 142475) and 96 well plates (No. 267245) were from Nunc.
Dimethylsulfoxid (DMSO) was from Sigma (Prod. No. D8418). Nonidet-P40 (NP40) was from USBiological (Prod. No. N3500)
Substrate, specific for Neutrophil elastase, was from Bachem (MeOSuc-Ala-Ala-Pro-Val-AMC; Prod. No. I-1270).
Human neutrophil elastase was from Calbiochem (Prod. No. 324681)
Tris-buffer (100 mM Tris; 1M NaCl; pH 7.5)
Tris-buffer+HSA 0.1%; Human Serum Albumin from Calbiochem (Cat#. 126658)
Serine-protease buffer (20 mM Tris; 100 mM NaCl; pH 7.5)+0.1% HSA
Serine protease lysis buffer: 20 mM Tris-HCl; 100 mM NaCl pH 7.5; +0.2% Nonidet-P40;
PBS: phosphate buffered saline, without Ca and Mg, from Gibco
U937 from ECACC (Cat. No. 85011440) cultured in suspension at 37° C. and 5% CO2.
Cell density: 0.2-1 Mio. Cells/ml.
Medium: RPMI1640 GlutaMAX (No. 61870) with 10% FCS from Gibco
Cell Seeding and Treatment:
Compounds in 100% DMSO were diluted in Medium (−FCS) with 10% DMSO and further diluted according to the experiment planned.
20 μl of the compound solution was transferred in the respective wells of the 24 well plate and diluted with 2 ml cell suspension/well containing 1×10^5 cells/ml (final concentration of DMSO=0.1%). Compound dilution factor=100
Compounds (up to 7 concentrations) were tested in triplicates with 3 wells for the DMSO 0.1% control, incubated for 48 hours without medium change at 37° C., 5% CO2 and 95% relative humidity.
Cell Harvesting and Cell Lysate:
Transfer the cell suspension in 2 ml 96 well assay block. Separate cells from medium by centrifugation (500×g; 10 min; RT); discard the supernatant. Resuspend in 1 ml PBS; centrifugation (500×g; 10 min; RT); wash cells twice with PBS. Add 80 μl Serine protease lysis buffer (ice cold) to the cell pellet; resuspend the pellet and store on ice for 10 minutes. Remove debris by centrifugation at 1000×g for 10 min at 4° C. Transfer 80-100 μl lysate supernatant in 96 well plate and store immediately at −80° C.
Neutrophil Elastase Activity Assay:
Frozen lysates were thaw at 37° C. for 10 minutes and stored on ice. Protein content was determined with Bradford protein assay. Lysates were diluted to 0.2-0.5 mg/ml protein in serine protease buffer+HSA.
Standard: NE (100 μg/ml stock solution in Tris-buffer; stored at −80° C.) was diluted in Tris-buffer+HSA to 750 ng/ml, and further serially diluted 1:2 for the standard curve. Buffer, blank, standard and lysate samples were transferred into 384 well plate
Blank: 5 μl Tris-buffer+10 μl Serine protease buffer+5 μl Substrate
Standard: 5 μl Tris-buffer+10 μl NE (diff. conc.)+5 μl Substrate
Lysate: 5 μl Tris-buffer+10 μl Lysat+5 μl Substrate
The increase in fluorescence (Ex360 nm/Em 460 nm) is determined after 30 minutes with a Molecular Device Spectramax M5 Fluorescence Reader. The result is interpolated to ng/mg lysate protein using excel formula functions. Percent inhibition in the compound-treated lysate samples is calculated relative to the DMSO-treated control-sample (100−(compound-sample*100)/control-sample)
A test compound will give values between 0% and 100% inhibition of neutrophil elastase. IC50 is calculated using Graphpad Prism; nonlinear fitting (log(inhibitor) vs. response—Variable slope). The IC50 value is interpolated as the concentration of test compound which leads to a neutrophil elastase activity reduction of 50% (relative to the DMSO-treated control).

[2] = biological target: recombinant human DPPI (Cathepsin C) (Homo sapiens (Human), UniProt P53634); assay: Inhibition of human DPPI (Cathepsin C); format: biochemical
Sequence of recombinant human DPPI (Cathepsin C) (P53634 231-394): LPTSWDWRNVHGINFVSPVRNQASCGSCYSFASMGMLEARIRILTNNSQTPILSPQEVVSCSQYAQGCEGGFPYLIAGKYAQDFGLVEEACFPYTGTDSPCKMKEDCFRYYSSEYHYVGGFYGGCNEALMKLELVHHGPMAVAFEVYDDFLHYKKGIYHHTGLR
Sequence of recombinant human DPPI (Cathepsin C) (P53634 25-134): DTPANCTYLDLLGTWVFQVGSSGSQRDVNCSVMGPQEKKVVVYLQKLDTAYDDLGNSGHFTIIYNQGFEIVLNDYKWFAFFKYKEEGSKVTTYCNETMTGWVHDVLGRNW
Sequence of recombinant human DPPI (Cathepsin C) (P53634 395-463): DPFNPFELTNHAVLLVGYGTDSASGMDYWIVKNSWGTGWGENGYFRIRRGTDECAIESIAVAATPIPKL
Description: Inhibition of Human DPPI (Cathepsin C)
The analysis of the data was performed by calculating the percentage of fluorescence in the presence of test compound in comparison to the fluorescence of the vehicle control after 20 subtracting the background fluorescence using the following formula: (RFU(sample)−RFU(background))*100/(RFU(control)−RFU(background))
Data from these calculations were used to generate IC50 values for inhibition of DPPI, respectively.

[3] = Determination of metabolic stability with human liver microsomes; format: in vitro ADME; conditions: pH 7.6; pooled human liver microsomes, 1 mg/ml protein, 1 μM compound, 37° C., NADPH; read-out: In vitro stability in human liver microsome incubations t1/2
Description: Determination of Metabolic Stability with Human Liver Microsomes
The metabolic degradation of the test compound is assayed at 37° C. with pooled human liver microsomes. The final incubation volume of 100 μl per time point contains TRIS buffer pH 7.6 (0.1 M), magnesium chloride (5 mM), microsomal protein (1 mg/ml) and the test compound at a final concentration of 1 μM. Following a short preincubation period at 37° C., the reactions are initiated by addition of beta-nicotinamide adenine dinucleotide phosphate, reduced form (NADPH, 1 mM) and terminated by transferring an aliquot into acetonitrile after different time points. Additionally, the NADPH-independent degradation is monitored in incubations without NADPH, terminated at the last time point. The [%] remaining test compound after NADPH independent incubation is reflected by the parameter c (control) (metabolic stability). The quenched incubations are pelleted by centrifugation (10′000 g, 5 min.) An aliquot of the supernatant is assayed by LC-MS/MS for the amount of parent compound.
The half-life (t1/2 INVITRO) is determined by the slope of the semilogarithmic plot of the concentration-time profile. The intrinsic clearance (CL_INTRINSIC) is calculated by considering the amount of protein in the incubation: CL_INTRINSIC [μl/min/mg protein]=(ln 2/(half-life [min]*protein content [mg/ml]))*1′000.

[4] = recombinant human DPPI, substrate Gly-Arg-AMC, pH 6.0, read-out: Inhibition of DPPI IC50
[5] = Table 14, compounds examined in X-ray crystallography, read-out: CatC IC50

| IC50 [2, 5] | Structure (SMILES) | IC50 [1] | IC50 [2, 4] | half-life at 1 μM [3] |
| --- | --- | --- | --- | --- |
| – | N#C[C@H](Cc1ccc(-c2ccc3c(c2)C2(CCNCC2)C(=O)N3)cc1F)NC(=O)[C@H]1N[C@@H]2CC[C@H]1C2 [Example 3] | 503 nM | 0.3 nM | > 130 min |
| – | CN1C(=O)C2(CCNCC2)c2cc(-c3ccc(C[C@@H](C#N)NC(=O)[C@H]4N[C@@H]5CC[C@H]4C5)c(F)c3)ccc21 [Example 4] | 91 nM | 0.4 nM | > 130 min |
| – | N#C[C@H](Cc1ccc(-c2ccc3c(c2)C2(CCNC2)OC3=O)cc1F)NC(=O)[C@H]1N[C@@H]2CC[C@H]1C2 (some centres unmarked) [Example 9] | 21.5 nM | 0.5 nM | > 130 min |
| – | N#C[C@H](Cc1ccc(-c2ccc3c(c2)C2(CCNCC2)OC3)cc1F)NC(=O)[C@H]1N[C@@H]2CC[C@H]1C2 [Example 13] | 16.7 nM | 0.6 nM | > 130 min |
| 0.5 nM | N#C[C@H](Cc1ccc(-c2ccc3c(c2)C2(CCNC2)C(=O)N3)cc1F)NC(=O)[C@H]1N[C@@H]2CC[C@H]1C2 (some centres unmarked) [Example 16] | 73.8 nM | 0.5 nM | > 130 min |
| – | CN1CCCC2(C1)C(=O)N(C)c1ccc(-c3ccc(C[C@@H](C#N)NC(=O)[C@H]4N[C@@H]5CC[C@H]4C5)c(F)c3)cc12 (some centres unmarked) [Example 17] | 0.6 nM | 1.6 nM | 60 min |
| – | N#C[C@H](Cc1ccc(-c2cc3c(cn2)COC32CCN(C3COC3)CC2)cc1F)NC(=O)[C@H]1N[C@@H]2CC[C@H]1C2 [Example 23, (1S,2S,4R)—N-[(1S)-1-cyano-2-[2-fluoro-4-[1′-(oxetan-3-yl)spiro[3H-furo[3,4-c]pyridine-1,4′-piperidine]-6-yl]phenyl]ethyl]-3-azabicyclo[2.2.1]heptane-2-carboxamide] | 7.5 nM | 5 nM | > 130 min |
| 0.7 nM | N#C[C@H](Cc1ccc(-c2ccc3c(c2)C2(CNC2)OC3=O)cc1F)NC(=O)[C@H]1N[C@@H]2CC[C@H]1C2 [Example 11] | 10.7 nM | 0.7 nM | > 130 min |
| – | N#C[C@H](Cc1ccc(-c2ccc3c(c2)C2(CCNCC2)OC3=O)cc1F)NC(=O)[C@H]1N[C@@H]2CC[C@H]1C2 [Example 7] | 34.9 nM | 0.5 nM | > 130 min |
| – | CN1CCC2(C1)OC(=O)c1cnc(-c3ccc(C[C@@H](C#N)NC(=O)[C@H]4N[C@@H]5CC[C@H]4C5)c(F)c3)cc12 (some centres unmarked) [Example 20] | 23.2 nM | 1.6 nM | > 130 min |
| – | CN1CCC2(C1)OC(=O)c1ccc(-c3ccc(C[C@@H](C#N)NC(=O)[C@H]4N[C@@H]5CC[C@H]4C5)c(F)c3)cc12 (some centres unmarked) [Example 10] | 1.4 nM | 0.6 nM | > 130 min |
| – | CN1CCC2(CC1)C(=O)Nc1ccc(-c3ccc(C[C@@H](C#N)NC(=O)[C@H]4N[C@@H]5CC[C@H]4C5)c(F)c3)cc12 [Example 6] | 22.2 nM | 0.2 nM | 110 min |
| – | CN1CCC2(CC1)OC(=O)c1ncc(-c3ccc(C[C@@H](C#N)NC(=O)[C@H]4N[C@@H]5CC[C@H]4C5)c(F)c3)cc12 [Example 21] | 63.7 nM | 1.4 nM | > 130 min |
| – | CN1CCC2(CC1)OC(=O)c1cnc(-c3ccc(C[C@@H](C#N)NC(=O)[C@H]4N[C@@H]5CC[C@H]4C5)c(F)c3)cc12 [Example 19] | 5 nM | 1 nM | > 130 min |
| – | CN1CCC2(CC1)C(=O)N(C)c1ccc(-c3ccc(C[C@@H](C#N)NC(=O)[C@H]4N[C@@H]5CC[C@H]4C5)c(F)c3)cc12 [Example 5] | 2.3 nM | 0.6 nM | > 130 min |
| – | N#C[C@H](Cc1ccc(-c2cc3c(cn2)C(=O)OC32CCN(C3COC3)CC2)cc1F)NC(=O)[C@H]1N[C@@H]2CC[C@H]1C2 [Example 22] | 15.7 nM | 4.8 nM | > 130 min |
| – | N#C[C@H](Cc1ccc(-c2ccc3c(n2)C2(CCN(C4COC4)CC2)OC3=O)cc1F)NC(=O)[C@H]1N[C@@H]2CC[C@H]1C2 [Example 24] | 6 nM | 2.7 nM | > 130 min |
| – | N#C[C@H](Cc1ccc(-c2cc3c(cn2)C(=O)OC32CCNCC2)cc1F)NC(=O)[C@H]1N[C@@H]2CC[C@H]1C2 [Example 18] | 220 nM | 1.6 nM | > 130 min |
| – | N#C[C@H](Cc1ccc(-c2ccc3c(c2)C2(CCNCC2)CC3)cc1F)NC(=O)[C@H]1N[C@@H]2CC[C@H]1C2 [Example 2] | 6.8 nM | 0.6 nM | > 130 min |
| – | CN1CC2(C1)OC(=O)c1ccc(-c3ccc(C[C@@H](C#N)NC(=O)[C@H]4N[C@@H]5CC[C@H]4C5)c(F)c3)cc12 [Example 12] | 1.2 nM | 0.5 nM | 46 min |
| – | CN1CCC2(CC1)OCc1cnc(-c3ccc(C[C@@H](C#N)NC(=O)[C@H]4N[C@@H]5CC[C@H]4C5)c(F)c3)cc12 [Example 26, (1S,2S,4R)—N-[(1S)-1-cyano-2-[2-fluoro-4-(1′-methylspiro[3H-furo[3,4-c]pyridine-1,4′-piperidine]-6-yl)phenyl]ethyl]-3-azabicyclo[2.2.1]heptane-2-carboxamide] | 4.6 nM | 2 nM | 55 min |
| – | CN1CCC2(CCc3ccc(-c4ccc(C[C@@H](C#N)NC(=O)[C@H]5N[C@@H]6CC[C@H]5C6)c(F)c4)cc32)CC1 [Example 15] | 0.2 nM | 0.5 nM | > 130 min |
| – | CN1CCC2(CC1)OCc1ccc(-c3ccc(C[C@@H](C#N)NC(=O)[C@H]4N[C@@H]5CC[C@H]4C5)c(F)c3)cc12 [Example 14] | 1.1 nM | 1 nM | > 130 min |
| – | CN1CCC2(CC1)OC(=O)c1ccc(-c3ccc(C[C@@H](C#N)NC(=O)[C@H]4N[C@@H]5CC[C@H]4C5)c(F)c3)cc12 [Example 8] | 0.8 nM | 0.7 nM | 74 min |
